Test in all cases: DTP human tumour cell line panel, 48 h
Assay [1] has as its system SF-295 CNS.
Assay [2] has as its system HCT-116 colon.
The subject of assay [3] is 786-0 renal.
For assay [4], the system named is NCI-H522 lung.
The test system of assay [5] is HOP-62 NSCLC.
Assay [6] concerns NCI/ADR-RES ovarian.
Assay [7] has as its system SK-MEL-5 melanoma.
For assay [8], the system named is OVCAR-3 ovarian.
The test system of assay [9] is LOX IMVI melanoma.
In assay [10] the test system is MCF7 breast.

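Growth conditions: 96-well plates. Treatment: test compound, 48 hours, 5 concentrations. Analysis: linear interpolation between bracketing concentrations; unreached endpoints set to highest concentration. TGI denotes the concentration required for complete inhibition of growth.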 Where only a bound is given, the exact number is not on record here.

As to `NC(=O)NC1=NCCC(=O)N1CCc1c[nH]c2ccccc12`, the TGI (as a rule, the concentration giving total growth inhibition) in assay [1] was over 100 µM; in [2], 26.4 µM; in [3], over 100 µM; in assay [4] it was 52.1 µM; in [5], 37.6 µM; in assay [6], 52.8 µM. Further, the results for the TGI in assay [7], in assay [8] and in assay [9] were 34.2 µM, 47.8 µM and 26.8 µM, respectively.
`Cc1cc(C)c(-c2noc(-c3ccc(Cl)cc3)c2C2=NCCN2)c(C)c1`: the TGI in assay [1] was found to be 27.6 µM; in assay [2], 64.5 µM; in assay [3] it was 29.3 µM; in [5], 62 µM; in assay [7], 24 µM; in assay [8], 44.7 µM. For the same compound, the TGI in assay [9] was 42.9 µM.
As for `Cn1c(=O)c2[nH]c(Nc3ccccc3)nc2n(C)c1=O`, the TGI in assay [1], in assay [3], in assay [5], in assay [10], in [7] and in assay [9] was over 10 µM in each case.
For `NC(N)=Nc1nc2cc(N)ccc2o1`, the TGI in assay [1], in assay [2], in assay [3], in assay [4], in assay [5] and in assay [9] was over 100 µM throughout.
For the compound `COc1cc(OC)c(Oc2cccc(OC)c2OC)c(OC)c1`, the TGI in assay [1], in assay [2], in [3], in assay [4], in assay [5] and in assay [7] was over 100 µM throughout. The TGI in [8] and in assay [9] was over 100 µM each time.
As for `Cn1c(=O)c(C2c3ccccc3Oc3c2c(=O)n(C)c2ccccc32)c(O)c2ccccc21` (configuration not stated), the TGI in [1] is over 100 µM; in assay [2] it was over 100 µM; in [3] it was over 100 µM; in [4], 54.6 µM; in [5] it was over 100 µM; in assay [7], over 100 µM. For the same compound, the TGI in [8] and in assay [9] was over 100 µM each time.
`O=C(Nc1ccc(Cl)cc1Cl)c1c/c(=N\O)c2ccc(O)cc2o1`: the TGI in assay [1], in assay [2], in assay [3], in [4], in assay [5] and in assay [7] was over 100 µM throughout. In addition, the TGI in assay [8] and in assay [9] was over 100 µM in each case.
`O=C(O)C(=O)/C=C\c1ccc(Cl)cc1`: the TGI in assay [1], in assay [2], in assay [3], in [4], in [5] and in [7] was over 100 µM each time. Besides, the TGI in assay [8] and in assay [9] was over 100 µM throughout.
For the compound `O=c1c2ccccc2oc2nccnc12`, the concentration for total growth inhibition (TGI) in [1], in [2], in assay [3], in assay [5], in [7] and in [8] was over 100 µM throughout. Besides, in assay [9], the TGI is over 100 µM.
With `O=C(/C=C(\O)C(=O)O)/C=C(\O)c1ccc(Cl)cc1`, the TGI in assay [1], in assay [2], in [3], in [4], in [5] and in assay [7] was over 100 µM each time. In addition, the TGI in [8] and in assay [9] was over 100 µM throughout.
As to `CCC(C)CNC1=C(NC(C)=O)C(=O)c2ccccc2C1=O` (configuration not stated), the TGI in assay [1], in assay [2], in assay [3], in assay [4], in assay [5] and in [7] was over 100 µM each time. Moreover, the TGI in assay [8] and in assay [9] was over 100 µM each time.
For `CCOC(=O)C(=C=Cc1cccs1)C(=O)c1ccccc1`, the TGI in assay [1] worked out at 31.9 µM; in assay [2] it was 27.7 µM; in assay [3] it was 29.5 µM; in [4] it was 28.3 µM; in assay [5], 33.9 µM; in assay [7], 10.5 µM. This compound came in with a TGI in assay [9] of 24.9 µM.
Take `Cc1cc(C)cc(NC(=O)CCC(=O)C2CCC/C2=N\NC(=O)C(=O)NN)c1` (configuration not stated): the TGI in [1], in assay [2], in assay [3], in [7], in [8] and in assay [9] was over 100 µM each time.
As to `COc1ccc2c(c1)C(CCN)C(=O)N2` (configuration not stated), the TGI in assay [1], in assay [2], in assay [3], in [5], in assay [7] and in assay [8] was over 100 µM each time. Further, the TGI in assay [9] was over 100 µM.
For the compound `c1cc(C2O[C@H]3CCCN3[C@@H]2c2ccncc2)ccn1` (some centres not stated), the TGI in [1], in assay [2], in assay [3], in [4], in assay [5] and in assay [7] was over 100 µM throughout. Moreover, the TGI in assay [8] and in assay [9] was over 100 µM throughout.
Turning to `COC(=O)c1nc(N)[nH]c(=O)c1-c1ccc(Cl)cc1`, the TGI in [1], in assay [2], in [3], in assay [4], in assay [5] and in assay [7] was over 100 µM each time. In addition, the TGI in assay [8] and in assay [9] was over 100 µM each time.
Take `CC(=O)OC1CC[C@@]2(C)C(CC(OC3OC(CO)C(O)C(O)C3O)[C@]3(C)C2CCC24CC23CC[C@H]4C(C)CC(O)[C@@H](O)C(C)(C)O)C1(C)C` (some centres not stated): the TGI in [1] is over 50 µM; in assay [2], 18.9 µM; in assay [3], 30.7 µM; in [4], 16.2 µM; in [5], 40.1 µM; in [7], 15.9 µM. In addition, the TGI in [8] turned out to be 48.7 µM; in assay [9], 15.5 µM.

Source of the values: PubChem BioAssay (NCI).
